# Reference: patent publication EP1157000B1 (Warner-Lambert Company LLC, priority 1999, dated 2001)
# Counter-ions that a name gives are not always drawn.
# Target: T1, rBCATc (Rattus norvegicus, UniProt P54690)
# T1 construct: The supernatant was dialyzed with at least three changes of dialysis buffer; from tissue; host or cells: rat brain (high-speed supernatant of homogenate, dialyzed)
# T1 sequence (P54690 1-411): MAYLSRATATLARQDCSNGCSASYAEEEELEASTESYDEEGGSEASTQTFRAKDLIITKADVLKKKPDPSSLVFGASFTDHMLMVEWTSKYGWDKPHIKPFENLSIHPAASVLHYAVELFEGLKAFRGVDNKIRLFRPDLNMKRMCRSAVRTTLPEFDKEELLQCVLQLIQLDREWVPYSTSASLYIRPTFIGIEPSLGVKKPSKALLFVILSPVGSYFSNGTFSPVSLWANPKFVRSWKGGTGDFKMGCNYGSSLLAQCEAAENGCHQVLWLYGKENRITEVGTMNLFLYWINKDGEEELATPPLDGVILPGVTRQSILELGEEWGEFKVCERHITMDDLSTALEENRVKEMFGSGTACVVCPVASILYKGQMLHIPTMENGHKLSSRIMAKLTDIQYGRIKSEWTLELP
# Test: Assay of BCAT ([14C] L-leucine transamination, rat brain supernatant enzyme)
# Format: biochemical
# Details: 25 µM [14C] L-leucine, 10 mM 2-oxoglutarate, pH 8.3, 10 min, 22 °C; read-out: rBCATc IC50
# Protocol: Enzyme preparation: Frozen rat brains were thawed on ice and minced into fine pieces. […] The samples were homogenized in Potters homogenizer (B. Bran Biotech International) at 500 rpm for ten strokes, followed by additional ten strokes at 800 rpm. The homogenates were centrifuged in Beckman J2-M1 centrifuge with rotor JA-20 at 19, 000 rpm for 1 hr. […] The resulting enzyme was stored at -80 °C for further assays.
# The solutions for the reaction mixture were made in 10-fold concentrations. After 10 min incubation at room temperature (22 °C), the reaction was stopped by adding 100 µl of 15 mM p-nitrophenyl hydrazine in 2 M HCL. After a few minutes, 1 mL of a toluene-based scintillation liquid (4.5 g of PPO and 0.5 g ofbis-MSB in 1 liter of toluene) was added, the tube was capped and mixed thoroughly with a Vortex mixer. […] Six hundreds µl of organic layer from each tube was placed into scintillation vials, followed by adding 10 ml of scintillation cocktail for counting.
row,Structure (SMILES),IC50 [mM]
1,"C[C@@H]1CCC(CN)(CC(=O)O)C1 (mixture of isomers) [Example 5, (cis/trans)-(3R)-(1-Aminomethyl-3-methyl-cyclopentyl)-acetic acid hydrochloride]",2.93
2,"C[C@@H]1CC(CN)(CC(=O)O)C[C@H]1C (racemic) [Example 4, (±)-(trans)-(1-Aminomethyl-3,4-dimethyl-cyclopentyl)-acetic acid hydrochloride]",2.51
3,"CCNCC1(CC(=O)O)C[C@H](C)C[C@H](C)C1 (stereo in doubt) [Example 59, ((3R, 5S)-1-Ethylaminomethyl-3,5-dimethyl-cyclohexyl)-acetic acid; hydrochloride salt]",3.37
4,"CCCNCC1(CC(=O)O)C[C@H](C)C[C@H](C)C1 (stereo in doubt) [Example 62, ((3R, 5S)-3,5-Dimethyl-1-propylaminomethyl-cyclohexyl)-acetic acid; hydrochloride salt]",4.22
5,"C[C@@H]1CCC[C@](CN)(CC(=O)O)C1 [Example 1, trans-(1R,3R)(1-Aminomethyl-3-methyl-cyclohexyl)-acetic acid hydrochloride]",0.146
6,"C[C@@H]1CC(CN)(CC(=O)O)C[C@H]1C [Example 6, (+)-(trans)-(1-Aminomethyl-3,4-dimethyl-cyclopentyl)-acetic acid hydrochloride]",2.62
7,"C[C@H]1CC(CN)(CC(=O)O)C[C@@H]1C [Example 7, (+)-(trans)-(1-Aminomethyl-3,4-dimethyl-cyclopentyl)-acetic acid hydrochloride]",2.17
8,"C[C@@H]1C[C@H](C)C[C@](CN)(CC(=O)O)C1 [Example 8, 1α,3β,5β-(1-Aminomethyl-3,5-dimethyl-cyclohexyl)-acetic acid hydrochloride]",0.074
9,"CCCNC[C@@]1(CC(=O)O)C[C@H](C)C[C@H](C)C1 [Example 9, 1α,3β,5β-(3,5-Dimethyl-1-propylaminomethyl-cyclohexyl)-acetic acid; hydrochloride salt]",0.12
10,"CCNCC1(CC(=O)O)CC(C)CC(C)C1 (stereo not drawn) [Example 10, 1α,3β,5β-(1-Ethylaminomethyl-3,5-dimethyl-cyclohexyl)-acetic acid hydrochloride salt]",0.121
11,"C[C@@H]1C[C@H](C)C[C@](CNCc2ccccc2)(CC(=O)O)C1 [Example 11, 1α,3β,5β-(1-Benzylamino-methyl)-3,5-dimethyl-cyclohexyl]-acetic acid; hydrochloride salt]",1.39
12,"CC1CC(C)CC(CC(=O)O)(CN(C)C)C1 (stereo not drawn) [Example 12, 1α,3β,5β-(1-Dimethylaminomethyl-3,5-dimethyl-cyclohexyl)-acetic acid; hydrochloride salt]",1.49
13,"CCCCNC[C@@]1(CC(=O)O)C[C@H](C)C[C@H](C)C1 [Example 13, 1α,3β,5β-(1-Butylaminomethyl-3,5-dimethyl-cyclohexyl)-acetic acid; hydrochloride salt]",> 10
14,"C[C@@H]1C[C@H](C)C[C@@](CC(=O)O)(CN(C)Cc2ccccc2)C1 [Example 14, 1α,3β,5β-{1-[(Benzyl-methyl-amino)-methyl]-3,5-dimethylcyclohexyl}-acetic acid; hydrochloride salt]",8.59
15,"CNC[C@@]1(CC(=O)O)C[C@H](C)C[C@H](C)C1 [Example 15, 1α,3β,5β-(3,5-Dimethyl-1-methylaminomethyl-cyclohexyl)-acetic acid; hydrochloride salt]",0.082
16,"CC(=O)NC[C@@]1(CC(=O)O)C[C@H](C)C[C@H](C)C1 [Example 16, 1α,3β,5β-[1-(Acetylamino-methyl)-3,5-dimethyl-cyclohexyl]-acetic acid]",1.32
17,"CC(C)CNC[C@@]1(CC(=O)O)C[C@H](C)C[C@H](C)C1 [Example 17, 1α,3β,5β-(1-(Isobutylamino-methyl)-3,5-dimethyl-cyclohexyl]-acetic acid hydrochloride salt]",> 10
18,"O=C(O)CC1(CNC2CCC2)CCCCC1 [Example 20, hydrochloride salt]",0.469
19,"CC(C)NC[C@@]1(CC(=O)O)C[C@H](C)C[C@H](C)C1 [Example 21, 1α,3β,5β-(1-(Isopropylamino-methyl)-3,5-dimethyl-cyclohexyl]-acetic acid hydrochloride salt]",0.169
20,"NCC1(CC(=O)O)CCCCC1 [Example 22, 1-Aminomethyl-1-cyclohexane-acetic acid]",0.389

row,Structure (SMILES),IC50 [mM]
1,"NCC1(CC(=O)O)CCCC1 [Example 23, 1-Aminomethyl-1-cyclopentane-acetic acid]",2.12
2,"NCC1(CC(=O)O)CCCC1 [Example 24, Sodium salt of 1-aminomethyl-1-cyclopentane-acetic acid]",0.942
3,"O=C(O)CC1(CO)CCCCC1 [Example 25, Sodium salt of 1-(hydroxymethyl)cyclohexane-acetic acid]",0.17
4,"CCC(C)CNCC1(CC(=O)O)CCCCC1 (stereo not drawn) [Example 26, {1-[(2-Methyl-butylamino)-methyl]-cyclohexyl}-acetic acid; hydrochloride salt]",8.59
5,"O=C(O)CC1(CNCCCC(F)(F)F)CCCCC1 [Example 27, {1-[(4,4,4-Trifluoro-butylamino)-methyl]-cyclohexyl}-acetic acid; hydrochloride salt]",1.55
6,"CCNCC1(CC(=O)O)CCCCC1 [Example 28, (1-Ethylaminomethyl-cyclohexyl)-acetic acid hydrochloride salt]",0.181
7,"O=C(O)CC1(CNCC2CC2)CCCCC1 [Example 29, {1-[(Cyclopropylmethyl-amino)-methyl]-cyclohexyl}-acetic acid hydrochloride salt]",0.391
8,"CC(CO)NCC1(CC(=O)O)CCCCC1 (stereo not drawn) [Example 30, {1-[(2-Hydroxy-1-methyl-ethylamino)-methyl]-cyclohexyl}-acetic acid hydrochloride salt]",2.25
9,"CC(C)CNCC1(CC(=O)O)CCCCC1 [Example 31, [1-(Isobutylamino-methyl)-cyclohexyl]-acetic acid hydrochloride salt]",0.908
10,"CCCNCC1(CC(=O)O)CCCCC1 [Example 32, (1-Propylaminomethyl-cyclohexyl)-acetic acid hydrochloride salt]",0.243
11,"CC(C)NCC1(CC(=O)O)CCCCC1 [Example 33, [1-(Isopropylamino-methyl)-cyclohexyl]-acetic acid hydrochloride salt]",1.02
12,"O=C(O)CC1(CNC2CCCCC2)CCCCC1 [Example 34, (1-Cyclohexylaminomethyl-cyclohexyl)-acetic acid hydrochloride salt]",3.22
13,"O=C(O)CC1(CNCc2ccccc2)CCCCC1 [Example 35, [1-(Benzylamino-methyl)-cyclohexyl]-acetic acid hydrochloride salt]",1.77
14,"O=C(O)CC1(CNCC2CCCC2)CCCCC1 [Example 37, {1-[Cyclopentylmethyl-amino)-methyl]-cyclohexyl}-acetic acid; hydrochloric salt]",1.19
15,"O=C(O)CC1(CNCC2CCCCC2)CCCCC1 [Example 38, {1-[(Cyclohexylmethyl-amino)-methyl]-cyclohexyl}-acetic acid; hydrochloric salt]",2.62
16,"CC(C)(C)OC(=O)NCC1(CC(=O)O)CCCCC1 [Example 39, [1-(tert-Butoxycarbonylamino-methyl)-cyclohexyl]-acetic acid]",0.933
17,"CC(=O)NCC1(CC(=O)O)CCCCC1 [Example 40, [1-(Acetylamino-methyl)-cyclohexyl]-acetic acid]",3.8
18,"C[C@@H]1C[C@H](C)CC(CNC2CCC2)(CC(=O)O)C1 (stereo partly drawn) [Example 41, ((3R, 5S)-1-Cyclobutylaminomethyl-3,5-dimethyl-cyclohexyl)-acetic acid; hydrochloride salt]",0.363
19,"CCC(C)CNCC1(CC(=O)O)C[C@H](C)C[C@H](C)C1 (stereo partly drawn) [Example 42, {(3R, 5S)-3,5-Dimethyl-1-[(2-methyl-butylamino)-methyl]-cyclohexyl}-acetic acid; hydrochloride salt]",0.669
20,"CC(CO)NCC1(CC(=O)O)C[C@H](C)C[C@H](C)C1 (stereo partly drawn) [Example 43, {(3R, 5S)-1-[(2-Hydroxy-1-methyl-ethylamino)-methyl]-3,5-dimethyl-cyclohexyl}-acetic acid; hydrochloride salt]",2.08

# Same assay, conditions: rBCATc IC50, 25 µM [14C] L-leucine, 10 mM 2-oxoglutarate, pH 8.3, 10 min, 22 °C
row,Structure (SMILES),IC50 [mM]
1,"CC1CCCCC1(CN)CC(=O)O (single isomer, unassigned) [Example 2, (1-Aminomethyl-2-methyl-cyclohexyl)-acetic acid hydrochloride]",1.14
2,"CC1(C)CCCC(CN)(CC(=O)O)C1 (stereo not drawn) [Example 3, (1-Aminomethyl-3,3-dimethyl-cyclohexyl)-acetic acid hydrochloride]",1.66
